Measured values: publication PMC9829398 (Plant Biotechnology Journal, 2022)

How the values were obtained:
tobacco roots = experiment: RNA-seq of tobacco roots (DEGs, GO and KEGG classification and enrichment); type: in vivo
Ralstonia solanacearum = type: in vivo, tobacco; details: 5 μM irrigated twice two days after inoculation
PER5 = details: 5 μM for 24 h, confocal microscopy
PEPR1 = experiment: PEPR1-CD kinase activity; type: biochemical, Arabidopsis
Description: Fig. S10. […] (a) Effects of FER inhibitors on the kinase activity of the Arabidopsis receptor kinase PEPR1 and CERK1 cytoplasmic domains (CDs). […] AT1G73080. […] AT3G21630. DMSO (0.05%; v/v) was used as a negative control. The data are shown as the means ± SDs (n = 4). The assay was repeated three times with similar results. ***, […]) Protein purification of PEPR1-CD and CERK1-CD. […] In (c and d), the data are presented as the means ± SDs of three biological replicates.

[1] = KEGG ko00040 Pentose and glucuronate interconversions
[2] = KEGG ko00052 Galactose metabolism
[3] = KEGG ko00062 Fatty acid elongation
[4] = KEGG ko00071 Fatty acid degradation
[5] = KEGG ko00073 Cutin, suberine and wax biosynthesis
[6] = KEGG ko00100 Steroid biosynthesis
[7] = KEGG ko00250 Alanine, aspartate and glutamate metabolism
[8] = KEGG ko00270 Cysteine and methionine metabolism
[9] = KEGG ko00290 Valine, leucine and isoleucine biosynthesis
[10] = KEGG ko00330 Arginine and proline metabolism
[11] = KEGG ko00350 Tyrosine metabolism
[12] = KEGG ko00360 Phenylalanine metabolism
[13] = KEGG ko00410 beta-Alanine metabolism
[14] = KEGG ko00430 Taurine and hypotaurine metabolism
[15] = KEGG ko00460 Cyanoamino acid metabolism
[16] = KEGG ko00480 Glutathione metabolism
[17] = KEGG ko00500 Starch and sucrose metabolism
[18] = KEGG ko00511 Other glycan degradation
[19] = KEGG ko00520 Amino sugar and nucleotide sugar metabolism
[20] = KEGG ko00531 Glycosaminoglycan degradation
[21] = KEGG ko00561 Glycerolipid metabolism
[22] = KEGG ko00564 Glycerophospholipid metabolism
[23] = KEGG ko00590 Arachidonic acid metabolism
[24] = KEGG ko00591 Linoleic acid metabolism
[25] = KEGG ko00592 alpha-Linolenic acid metabolism
[26] = KEGG ko00603 Glycosphingolipid biosynthesis - globo series
[27] = KEGG ko00604 Glycosphingolipid biosynthesis - ganglio series
[28] = KEGG ko00650 Butanoate metabolism
[29] = KEGG ko00730 Thiamine metabolism
[30] = KEGG ko00760 Nicotinate and nicotinamide metabolism
[31] = KEGG ko00770 Pantothenate and CoA biosynthesis
[32] = KEGG ko00904 Diterpenoid biosynthesis
[33] = KEGG ko00905 Brassinosteroid biosynthesis
[34] = KEGG ko00906 Carotenoid biosynthesis
[35] = KEGG ko00908 Zeatin biosynthesis
[36] = KEGG ko00909 Sesquiterpenoid and triterpenoid biosynthesis
[37] = KEGG ko00910 Nitrogen metabolism
[38] = KEGG ko00940 Phenylpropanoid biosynthesis
[39] = KEGG ko00941 Flavonoid biosynthesis
[40] = KEGG ko00950 Isoquinoline alkaloid biosynthesis
[41] = KEGG ko00960 Tropane, piperidine and pyridine alkaloid biosynthesis
[42] = KEGG ko00980 Metabolism of xenobiotics by cytochrome P450
[43] = KEGG ko00982 Drug metabolism - cytochrome P450
[44] = KEGG ko01040 Biosynthesis of unsaturated fatty acids
[45] = KEGG ko03320 PPAR signaling pathway
[46] = KEGG ko04010 MAPK signaling pathway
[47] = KEGG ko04011 MAPK signaling pathway - yeast
[48] = KEGG ko04020 Calcium signaling pathway
[49] = KEGG ko04022 cGMP-PKG signaling pathway
[50] = KEGG ko04075 Plant hormone signal transduction
[51] = KEGG ko04140 Regulation of autophagy
[52] = KEGG ko04211 Longevity regulating pathway
[53] = KEGG ko04212 Longevity regulating pathway - worm
[54] = KEGG ko04370 VEGF signaling pathway
[55] = KEGG ko04380 Osteoclast differentiation
[56] = KEGG ko04614 Renin-angiotensin system
[57] = KEGG ko04626 Plant-pathogen interaction
[58] = KEGG ko04650 Natural killer cell mediated cytotoxicity
[59] = KEGG ko04660 T cell receptor signaling pathway
[60] = KEGG ko04662 B cell receptor signaling pathway
[61] = KEGG ko04712 Circadian rhythm - plant
[62] = KEGG ko04720 Long-term potentiation
[63] = KEGG ko04723 Retrograde endocannabinoid signaling
[64] = KEGG ko04724 Glutamatergic synapse
[65] = KEGG ko04810 Regulation of actin cytoskeleton
[66] = KEGG ko04920 Adipocytokine signaling pathway
[67] = KEGG ko04921 Oxytocin signaling pathway
[68] = KEGG ko04922 Glucagon signaling pathway
[69] = KEGG ko04974 Protein digestion and absorption
[70] = KEGG ko04975 Fat digestion and absorption
[71] = tobacco roots, 5 μM irrigated twice, coregulated genes, vs DMSO

Structure (SMILES): O=C(O)c1cc(N(Cc2ccccc2O)Cc2cc(O)ccc2O)ccc1O [Lavendustin A]
- Enrichment_score (tobacco roots; [1]): 1.762
- ListHits (tobacco roots; [1]): 11
- Enrichment_score (tobacco roots; [2]): 3.118
- ListHits (tobacco roots; [2]): 9
- Enrichment_score (tobacco roots; [3]): 4.058
- ListHits (tobacco roots; [3]): 8
- Enrichment_score (tobacco roots; [4]): 0.9908
- ListHits (tobacco roots; [4]): 2
- Enrichment_score (tobacco roots; [5]): 6.683
- ListHits (tobacco roots; [5]): 16
- Enrichment_score (tobacco roots; [6]): 3.5933
- ListHits (tobacco roots; [6]): 7
- Enrichment_score (tobacco roots; [7]): 2.602
- ListHits (tobacco roots; [7]): 8
- Enrichment_score (tobacco roots; [8]): 1.358
- ListHits (tobacco roots; [8]): 8
- Enrichment_score (tobacco roots; [9]): 1.495
- ListHits (tobacco roots; [9]): 2
- Enrichment_score (tobacco roots; [10]): 2.996
- ListHits (tobacco roots; [10]): 9
- Enrichment_score (tobacco roots; [11]): 1.721
- ListHits (tobacco roots; [11]): 4
- Enrichment_score (tobacco roots; [12]): 3.551
- ListHits (tobacco roots; [12]): 8
- Enrichment_score (tobacco roots; [13]): 1.826
- ListHits (tobacco roots; [13]): 6
- Enrichment_score (tobacco roots; [14]): 1.704
- ListHits (tobacco roots; [14]): 1
- Enrichment_score (tobacco roots; [15]): 2.209
- ListHits (tobacco roots; [15]): 7
- Enrichment_score (tobacco roots; [16]): 1.785
- ListHits (tobacco roots; [16]): 8
- Enrichment_score (tobacco roots; [17]): 2.489
- ListHits (tobacco roots; [17]): 34
- Enrichment_score (tobacco roots; [18]): 1.253
- ListHits (tobacco roots; [18]): 1
- Enrichment_score (tobacco roots; [19]): 1.791
- ListHits (tobacco roots; [19]): 14
- Enrichment_score (tobacco roots; [20]): 1.152
- ListHits (tobacco roots; [20]): 1
- Enrichment_score (tobacco roots; [21]): 2.272
- ListHits (tobacco roots; [21]): 8
- Enrichment_score (tobacco roots; [22]): 1.826
- ListHits (tobacco roots; [22]): 9
- Enrichment_score (tobacco roots; [23]): 1.2911
- ListHits (tobacco roots; [23]): 1
- Enrichment_score (tobacco roots; [24]): 6.087
- ListHits (tobacco roots; [24]): 6
- Enrichment_score (tobacco roots; [25]): 4.111
- ListHits (tobacco roots; [25]): 11
- Enrichment_score (tobacco roots; [26]): 4.485
- ListHits (tobacco roots; [26]): 2
- Enrichment_score (tobacco roots; [27]): 4.734
- ListHits (tobacco roots; [27]): 1
- Enrichment_score (tobacco roots; [28]): 1.671
- ListHits (tobacco roots; [28]): 2
- Enrichment_score (tobacco roots; [29]): 1.522
- ListHits (tobacco roots; [29]): 1
- Enrichment_score (tobacco roots; [30]): 4.438
- ListHits (tobacco roots; [30]): 5
- Enrichment_score (tobacco roots; [31]): 1.397
- ListHits (tobacco roots; [31]): 2
- Enrichment_score (tobacco roots; [32]): 1.0025
- ListHits (tobacco roots; [32]): 2
- Enrichment_score (tobacco roots; [33]): 2.84
- ListHits (tobacco roots; [33]): 2
- Enrichment_score (tobacco roots; [34]): 1.079
- ListHits (tobacco roots; [34]): 2
- Enrichment_score (tobacco roots; [35]): 1.973
- ListHits (tobacco roots; [35]): 5
- Enrichment_score (tobacco roots; [36]): 1.739
- ListHits (tobacco roots; [36]): 2
- Enrichment_score (tobacco roots; [37]): 6.015
- ListHits (tobacco roots; [37]): 12
- Enrichment_score (tobacco roots; [38]): 5.314
- ListHits (tobacco roots; [38]): 58
- Enrichment_score (tobacco roots; [39]): 1.173
- ListHits (tobacco roots; [39]): 3
- Enrichment_score (tobacco roots; [40]): 2.794
- ListHits (tobacco roots; [40]): 4
- Enrichment_score (tobacco roots; [41]): 4.058
- ListHits (tobacco roots; [41]): 6
- Enrichment_score (tobacco roots; [42]): 2.166
- ListHits (tobacco roots; [42]): 6
- Enrichment_score (tobacco roots; [43]): 2.749
- ListHits (tobacco roots; [43]): 8
- Enrichment_score (tobacco roots; [44]): 1.121
- ListHits (tobacco roots; [44]): 2
- Enrichment_score (tobacco roots; KEGG ko02010 ABC transporters): 2.282
- ListHits (tobacco roots; KEGG ko02010 ABC transporters): 3
- Enrichment_score (tobacco roots; [45]): 2.72
- ListHits (tobacco roots; [45]): 3
- Enrichment_score (tobacco roots; [46]): 1.195
- ListHits (tobacco roots; [46]): 3
- Enrichment_score (tobacco roots; [47]): 1.3634
- ListHits (tobacco roots; [47]): 4
- Enrichment_score (tobacco roots; [48]): 1.535
- ListHits (tobacco roots; [48]): 4
- Enrichment_score (tobacco roots; [49]): 1.209
- ListHits (tobacco roots; [49]): 4
- Enrichment_score (tobacco roots; [50]): 1.797
- ListHits (tobacco roots; [50]): 28
- Enrichment_score (tobacco roots; [51]): 1.598
- ListHits (tobacco roots; [51]): 3
- Enrichment_score (tobacco roots; KEGG ko04146 Peroxisome): 1.462
- ListHits (tobacco roots; KEGG ko04146 Peroxisome): 7
- Enrichment_score (tobacco roots; [52]): 1.677
- ListHits (tobacco roots; [52]): 5
- Enrichment_score (tobacco roots; [53]): 1.175
- ListHits (tobacco roots; [53]): 4
- Enrichment_score (tobacco roots; KEGG ko04360 Axon guidance): 2.905
- ListHits (tobacco roots; KEGG ko04360 Axon guidance): 6
- Enrichment_score (tobacco roots; [54]): 2.242
- ListHits (tobacco roots; [54]): 3
- Enrichment_score (tobacco roots; [55]): 2.242
- ListHits (tobacco roots; [55]): 3
- Enrichment_score (tobacco roots; [56]): 9.13
- ListHits (tobacco roots; [56]): 3
- Enrichment_score (tobacco roots; [57]): 1.285
- ListHits (tobacco roots; [57]): 13
- Enrichment_score (tobacco roots; [58]): 2.412
- ListHits (tobacco roots; [58]): 3
- Enrichment_score (tobacco roots; [59]): 2.905
- ListHits (tobacco roots; [59]): 3
- Enrichment_score (tobacco roots; [60]): 2.204
- ListHits (tobacco roots; [60]): 3
- Enrichment_score (tobacco roots; [61]): 1.266
- ListHits (tobacco roots; [61]): 3
- Enrichment_score (tobacco roots; [62]): 1.66
- ListHits (tobacco roots; [62]): 3
- Enrichment_score (tobacco roots; [63]): 1.014
- ListHits (tobacco roots; [63]): 1
- Enrichment_score (tobacco roots; [64]): 1.982
- ListHits (tobacco roots; [64]): 4
- Enrichment_score (tobacco roots; KEGG ko04727 GABAergic synapse): 1.8
- ListHits (tobacco roots; KEGG ko04727 GABAergic synapse): 3
- Enrichment_score (tobacco roots; [65]): 1.244
- ListHits (tobacco roots; [65]): 4
- Enrichment_score (tobacco roots; [66]): 3.4085
- ListHits (tobacco roots; [66]): 6
- Enrichment_score (tobacco roots; [67]): 1.746
- ListHits (tobacco roots; [67]): 5
- Enrichment_score (tobacco roots; [68]): 1.2104
- ListHits (tobacco roots; [68]): 5
- Enrichment_score (tobacco roots; KEGG ko04924 Renin secretion): 2.282
- ListHits (tobacco roots; KEGG ko04924 Renin secretion): 3
- Enrichment_score (tobacco roots; [69]): 11.3617
- ListHits (tobacco roots; [69]): 4
- Enrichment_score (tobacco roots; [70]): 3.551
- ListHits (tobacco roots; [70]): 1
- Enrichment_score (tobacco roots; KEGG ko04976 Bile secretion): 2.324
- ListHits (tobacco roots; KEGG ko04976 Bile secretion): 3
- Expression levels of growth-related genes in tobacco roots (tobacco roots; RNA-seq, GO growth, vs DMSO): differentially elevated the expression levels of most growth‐related genes
- Expression levels of RBOHs, MYB44, TGA2, WRKY19, EFR, FLS2, PR1 and PDF1.4 in tobacco roots (tobacco roots; RNA-seq, vs DMSO): significantly increased the expression levels
- Antioxidant genes (GO antioxidant activity) up-regulated (tobacco roots; [71]): 60 of 61
- Immune genes (GO immune system process) up-regulated (tobacco roots; [71]): 70 of 82
- Environmental adaptation-related genes (KEGG) up-regulated (tobacco roots; tobacco roots, coregulated genes, vs DMSO): 22 of 29
- Effect on established tobacco bacterial wilt (Ralstonia solanacearum): could not completely prevent the occurrence of the diseases or cure already diseased plants
- Expression of PER5 in roots (PER5): did not affect the expression levels
- Effect on PEPR1 kinase activity (PEPR1): did not affect the kinase activity
